Results: US20240166629A1, “HETEROCYCLIC COMPOUNDS CAPABLE OF ACTIVATING STING” (Boehringer Ingelheim International GmbH, priority 2022, published 2024)

Legend:
[1] = target: T1, human STING variant R293Q (Homo sapiens, UniProt Q86WV6, H232R/R293Q); assay: THP1-Blue ISG IRF-inducible SEAP reporter assay, STING R293Q-variant; assay type: cell-based; conditions: THP1-Blue ISG hSTING KO cells expressing STING R293Q; 24 hours incubation
T1 construct: expressed in transfected cells; host or cells: THP1-Blue ISG hSTING KO clone, retroviral MSCV-ires-GFP-Blasti
T1 sequence (Q86WV6 whole entry H232R/R293Q): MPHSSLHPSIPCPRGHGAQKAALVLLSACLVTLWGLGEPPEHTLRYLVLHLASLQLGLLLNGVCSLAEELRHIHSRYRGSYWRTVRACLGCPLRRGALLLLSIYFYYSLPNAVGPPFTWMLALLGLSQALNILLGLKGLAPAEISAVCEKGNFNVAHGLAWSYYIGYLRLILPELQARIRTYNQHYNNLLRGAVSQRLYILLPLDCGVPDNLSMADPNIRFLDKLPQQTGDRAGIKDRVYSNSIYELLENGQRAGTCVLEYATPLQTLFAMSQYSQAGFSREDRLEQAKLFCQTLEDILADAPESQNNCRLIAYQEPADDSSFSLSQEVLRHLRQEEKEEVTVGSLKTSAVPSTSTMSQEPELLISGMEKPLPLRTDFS
Excerpt: (§1) Activation of the STING protein expressed in cell lines results in an increase of interferon production. By the stable integration of an interferon regulatory factor (IRF)-inducible SEAP gene (secreted embryonic alkaline phosphatase) reporter construct the functional interferon signaling pathway can be monitored. Using Invivogen's THP1-Blue™ ISG colorimetric enzyme assay and a suitable optical density (OD) reader the activity of SEAP can be detected and quantified. This technique could be used to characterize pharmacological modification of the STING pathway.
(§2) Several single nucleotide polymorphisms have been identified in the human STING gene. To determine the activity of the above described compounds, THP1-Blue™ ISG reporter cell lines expressing the different human STING variants have been generated. To do so, the endogenous human STING was first deleted using the CRISPR/CAS9 system: THP1-Blue ISG cells were electroporated with ALL-IN-ONE CRISPR plasmids targeting the STING gene (purchased from Sigma encoding the gRNA and GFP as a reporter gene for successful transduction). GFP positive cells then were sorted 24 h post transfection and expanded. Cells were then dispersed in semisolid methocel medium to allow single cell clone isolations. Clones were then screened for cGAMP responsiveness using the Quanti-Blue™ reporter assay. Non-responsive clones were subsequently analysed for STING loss by western blotting and sequencing of the STING locus.
(§3) For the overexpression of the human STING variants, a confirmed THP1-Blue™ ISG hSTING KO clone was transduced with individual retroviral plasmids (MSCV-ires-GFP-Blasti) encoding the allelic variants of hSTING (WT (H232R), HAQ, R232H, AQ and R293Q). Transduced cells were sorted for different levels of GFP fluorescence and STING allele expression was analysed by western blot.
(§4) Measurements of SEAP activity were performed in THP1-Blue™ ISG cells stably expressing the different human STING isoforms and the IRF-inducible SEAP reporter construct. Cells were cultivated in RPMI1640 medium with 10% fetal calf serum, 50 μg/ml Penicillin-Streptomycin, 100 μg/ml Zeocin, and 100 μg/ml Normocin in a 37°, 95% humidity and 5% CO2 incubator.
(§5) In preparation for the assay, the cells were distributed into the assay plates with a density of 10000 cells/15 μL per well. Compounds were prepared by an 8 point serial dilution in 50% aqueous DMSO and a final dilution step into medium to ensure a final DMSO concentration of 0.5% in the assay. 5 μL of diluted compounds were added to the plates, followed by a 24 hours incubation at 37° C.
(§6) At the day of the assay, 75 μl per well of Quanti-Blue™ reagent was added to all wells of the plate and the plate was incubated another 30 minutes at 37° C. The OD at 620 nm was measured on the EnVision reader (PerkinElmer).

[2] = target: T2, human STING variant R232H (Homo sapiens, UniProt Q86WV6); assay: THP1-Blue ISG IRF-inducible SEAP reporter assay, STING R232H-variant; assay type: cell-based; conditions: THP1-Blue ISG hSTING KO cells expressing STING R232H; 24 hours incubation
T2 construct: expressed in transfected cells; host or cells: THP1-Blue ISG hSTING KO clone, retroviral MSCV-ires-GFP-Blasti
T2 sequence (Q86WV6 whole entry, stated change not applied): as the sequence (Q86WV6 whole entry H232R/R293Q) above, with R232H, Q293R counted along it
Excerpt: as §1, §2, §3, §4, §5, §6

[3] = system: Human STING (hSTING, UNIPROT entry Q86WV6, residues 155-341); assay: Interaction with hSTING by differential scanning fluorimetry (DSF); assay type: binding; conditions: 100 μM test compound, 5 μM hSTING protein
Procedure: In DSF, the temperature at which a protein unfolds, also called the melting temperature Tm, is measured by changes in fluorescence of a dye that binds to the hydrophobic parts of the protein. Tm shifts upon binding of a small molecule are correlated with the binding affinity of this small molecule. As target protein, Human STING (hSTING, UNIPROT entry Q86WV6, residues 155-341, MW: 21578.4 Da; protein stock solution: c=1302 μM stock solution in 20 mM Tris, 100 mM NaCl, 2 mM TCEP pH 8.8) was used, as assay buffer 20 mM Tris, 150 mM NaCl pH7.5 was added where and as necessary.
Final concentrations of components in assay: 100 μM test compounds, 5 μM target protein, “5×” SYPR Orange (from stock solution SYPRO orange solution in DMSO (invitrogen cat.-no. 56650-500ul), concentration “5000×”)
Assay Procedure: • 1) Dilutions of compound stock solutions (10 mM in DMSO) were prepared in assay buffer (20 mM Tris, 150 mM NaCl; pH7.5) • 2) 5 μl fluorescent dye stock solution (5000×SYPRO Orange in DMSO) was mixed with 19 μl target protein (1302 μM) and 976 μl assay buffer. • 3) 2 μl of this protein-dye-mixture (25×SYPRO Orange and 25 μM Protein) was added to 8 μl diluted compound solution as prepared in step 1. Final volume was 10 μl. • 4) With every 20 compounds, two negative controls were measured. • 5) The plates were prepared for duplicate measurement and centrifuged for 2 min at 1000 g. • 6) For the measurement, a CFX384 Real-Time System (Bio-Rad) was used. The run consisted of 140 cycles with 0.5° C./cycle (temperature ramp 15 s/cycle, 25° C. to 95° C.).
Data analysis: The melting curves were processed in Bio-Rad CFX Manager. Peak type was set to “negative”. Two replicates of TM (melting temperature) measurements were averaged and the standard deviation was calculated.

[4] = target: T3, human STING variant H232R (WT) (Homo sapiens, UniProt Q86WV6, H232R); assay: THP1-Blue ISG IRF-inducible SEAP reporter assay, STING H232R-variant; assay type: cell-based; conditions: THP1-Blue ISG hSTING KO cells expressing STING H232R; 24 hours incubation
T3 construct: expressed in transfected cells; host or cells: THP1-Blue ISG hSTING KO clone, retroviral MSCV-ires-GFP-Blasti
T3 sequence (Q86WV6 whole entry H232R): as the sequence (Q86WV6 whole entry H232R/R293Q) above, with Q293R counted along it
Excerpt: as §1, §2, §3, §4, §5, §6

[5] = target: T4, human STING variant AQ (Homo sapiens, UniProt Q86WV6, G230A/H232R/R293Q); assay: THP1-Blue ISG IRF-inducible SEAP reporter assay, STING AQ-variant; assay type: cell-based; conditions: THP1-Blue ISG hSTING KO cells expressing STING AQ; 24 hours incubation
T4 construct: expressed in transfected cells; host or cells: THP1-Blue ISG hSTING KO clone, retroviral MSCV-ires-GFP-Blasti
T4 sequence (Q86WV6 whole entry G230A/H232R/R293Q): as the sequence (Q86WV6 whole entry H232R/R293Q) above, with G230A counted along it
Excerpt: as §1, §2, §3, §4, §5, §6

[6] = in vitro; conditions: human, Caco-2, pH 7.4
Procedure: Caco-2 cells were obtained from Leibniz Institute DSMZ-German Collection of Microorganisms and Cell Cultures (Braunschweig, Germany) and cultured in DMEM (Dulbecco's modified Eagle medium) containing (in final concentrations) 10% FCS (fetal calf serum), 1% NEAA (non-essential amino acids), 2 mM Glutamin, 100 U/mL Penicillin and 100 μg/mL Streptomycin. Caco-2 cells were seeded either onto 24-well Transwell inserts (Corning, #3379) for bidirectional permeability assays at a density of 160,000 cells/cm^2 and cultured for 3 weeks, with media change on every second day.
For bidirectional permeability assays 10 mM DMSO stock solutions were diluted in transport buffer (final concentrations: 128.13 mM NaCl, 5.36 mM KCl, 1 mM MgSO4, 1.8 mM CaCl2, 4.17 mM NaHCO3, 1.19 mM Na2HPO4, 0.41 mM NaH2PO4, 15 mM 2-[4-(2-hydroxyethyl)piperazin-1-yl]ethanesulfonic acid (HEPES), 20 mM glucose, pH 7.4) containing 0.25% bovine serum albumin to a final concentration of 10 μM of the test compounds and added to the apical or basal compartment. Cells were incubated with the compounds for up to 2 h. Samples from the opposite compartment were taken at different timepoints.
Compound concentrations in the compartments were quantified using a RapidFire-based high-throughput HPLC/MS/MS system (high performance liquid chromatography/mass spectrometry; BioCius) that was customized to a fully automated and flexible platform, termed RIAS. In this modified setup, the sample was aspirated by a vacuum pump into a 10 μL sample loop for 250 ms and flushed onto a C4 cartridge (3.8 μL bed volume; BioCius) with the aqueous mobile phase (99.9% water, 0.09% formic acid, and 0.01% TFA; flow rate 1.5 mL/min). Prior to bioanalysis samples were spiked with internal standard solution and diluted with acetonitrile (ACN) for protein precipitation. Measurement was operated in multiplereaction monitoring (MRM) mode. Quantification was performed using external calibration. A solid-phase extraction step retained the analyte for 3000 ms while interfering matrix (e.g., buffer components) was removed. With a simple step gradient, the analyte was back-eluted from the cartridge for 3,000 ms with the organic mobile phase (99.9% acetonitrile/methanol [1:1, v:v], 0.09% formic acid, and 0.01% TFA) and flushed into the mass spectrometer at a flow rate of 1.25 mL/min. Afterwards, the cartridge was reequilibrated with the aqueous mobile phase for 500 ms (flow rate 1.5 mL/min). The RapidFire software and a customized control software were obtained from BioCius. QuickQuan 2.3, Xcalibur 2.0.7, and XDK 2.1.0.25 were used to operate the TSQ Vantage mass spectrometer (ThermoFisher, San Jose, CA) integrated to the RapidFire system. Mass spectral data-processing software QuickCalc 7.1.9 was purchased from ThermoFisher. The Master software for the RIAS was programmed in-house using LabVIEW (version 8.6.1; National Instruments, Austin, TX). Data analysis was performed in AssayExplorer 3.2 (Symyx, Sunnyvale, CA), and correlation plots were visualized in Spotfire version 2.2.0 (TIBCO, Palo Alto, CA).
Apparent permeability coefficients in the apical to basal direction (Papp,AB) and in the basal to apical direction (Papp,BA) and efflux ratios were calculated as follows:
Efflux ratio=Papp,BA/Papp,AB
where Q is the amount of compound recovered in the receiver compartment after the incubation time t, C0 the initial compound concentration given to the donor compartment, and s the surface area of the Transwell inserts. […] In addition, transepithelial electrical resistance (TEER) values are measured for each plate before the permeability assay, and total recovery in donor and receiver compartments was determined for each compound.

[7] = target: T5, human STING variant HAQ (Homo sapiens, UniProt Q86WV6, G230A/H232R/R293Q/R71H); assay: THP1-Blue ISG IRF-inducible SEAP reporter assay, STING HAQ-variant; assay type: cell-based; conditions: THP1-Blue ISG cells expressing STING HAQ (parental or re-introduced); 24 hours incubation; SEAP OD 620 nm
T5 construct: expressed in transfected cells; host or cells: THP1-Blue ISG: either parental cells (endogenous HAQ) or hSTING KO clone retrovirally transduced with HAQ
T5 sequence (Q86WV6 whole entry R71H/G230A/H232R/R293Q): as the sequence (Q86WV6 whole entry H232R/R293Q) above, with R71H, G230A counted along it
Excerpt: as §1, §2, §3, §4, §5, §6
Data of EC50 values on STING HAQ-variant can be found in table 2a. Shown data below were either derived from the parental THP1-Blue™ ISG cell lines (which express endogenously HAQ) or from genetically engineered THP1-Blue™ ISG cell lines in which first STING has been knocked-out and the HAQ specific STING isoform has been re-introduced as described above.

EC50 [1]: 100 nM | EC50 [2]: 100 nM | EC50 [4]: 100 nM | EC50 [5]: 100 nM | Papp A→B at 10 μM [6]: 11 ×10⁻⁶ cm/s | efflux ratio at 10 μM [6]: 1.4 | EC50 [7]: 100 nM
SMILES: Cc1c(Cl)ccc2c(-c3cccc4nn(C)cc34)nn(-c3ccc(N4C[C@@H]5[C@H](C4)[C@H]5C(=O)O)nc3)c12 [compound 8, (1R,5S,6r)-3-(5-(6-chloro-2′,7-dimethyl-1H,2′H-[3,4′-biindazol]-1-yl)pyridin-2-yl)-3-azabicyclo[3.1.0]hexane-6-carboxylic acid]
TM (changes in TM, thermal shift) [3]: 22 K
